Experimental data as given in ChEMBL document CHEMBL3638567, “2-heteroaryl carboxamides” (2015).

molecular target: Neuronal acetylcholine receptor subunit alpha-7 (Rattus norvegicus, UniProt Q05941); experiment: Binding Assay: The [3H]-methyllycaconitine binding assay is a modification of the method described by Davies et al. in Neuropharmacol. 1999, 38, 679-690.Rat brain tissue (hippocampus or whole brain) is homogenized in homogenization buffer (10% w/v, 0.32 M sucrose, 1 mM EDTA, 0.1 mM phenylmethylsulphonyl fluoride (PMSF), 0.01% (w/v) NaN3, pH 7.4, 4 C.) at 600 rpm in a glass homogenizer. The homogenate is centrifuged (1000xg, 4 C., 10 min) and the supernatant is removed. The pellet is resuspended (20% w/v) and the suspension is centrifuged (1000xg, 4 C., 10 min). The two supernatants are combined and centrifuged (15 000xg, 4 C., 30 min). The pellet obtained in this way is referred to as the P2 fraction.The P2 pellet is suspended in binding buffer (50 mM Tris-HCl, 1 mM MgCl2, 120 mM NaCl, 5 mM KCl, 2 mM CaCl2, pH 7.4), and the suspension is centrifuged (15 000xg, 4 C., 30 min), twice.The residue is resuspended in binding buffer and incubated in a volume of 250 ul.; type: tissue-based
Sequence (Q05941 whole entry): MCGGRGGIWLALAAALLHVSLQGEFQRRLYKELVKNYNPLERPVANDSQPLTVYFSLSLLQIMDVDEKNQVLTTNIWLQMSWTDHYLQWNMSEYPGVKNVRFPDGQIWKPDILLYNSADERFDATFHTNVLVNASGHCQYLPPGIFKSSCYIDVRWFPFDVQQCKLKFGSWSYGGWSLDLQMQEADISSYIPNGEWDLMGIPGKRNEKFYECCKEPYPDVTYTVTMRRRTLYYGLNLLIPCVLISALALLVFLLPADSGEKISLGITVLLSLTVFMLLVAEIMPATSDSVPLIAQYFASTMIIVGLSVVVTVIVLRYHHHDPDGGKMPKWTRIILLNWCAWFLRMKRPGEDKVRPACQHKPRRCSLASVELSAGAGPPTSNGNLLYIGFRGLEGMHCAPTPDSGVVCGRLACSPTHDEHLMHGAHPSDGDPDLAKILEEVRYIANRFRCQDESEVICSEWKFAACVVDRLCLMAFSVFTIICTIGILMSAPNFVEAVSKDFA

Row | SMILES | Ki [nM]
1 | CNC(=O)NCc1ccccc1-c1cccc2cc(C(=O)N[C@H]3CN4CCC3CC4)sc12 | 3.3
2 | O=C(NC1CC1)c1cccc(-c2cccc3cc(C(=O)N[C@H]4CN5CCC4CC5)oc23)c1 | 3
3 | CN1CCN(C(=O)c2cccc(-c3cccc4cc(C(=O)N[C@H]5CN6CCC5CC6)oc34)c2)CC1 | 14
